# From US4241184A, “Secondary alcohol dehydrogenase enzyme and use thereof” (priority 1979, dated 1980)
# How the values were obtained:
# [1] = Oxidation of methane and lower alkenes by washed cell suspensions of methane-grown methylotrophic strains; format: cell-based; conditions: methane-grown methylotrophic microorganisms
# Procedure: The isolates had been maintained on agar plates under an atmosphere of methane and air having a 1:1 v/v gas ratio which had been transferred every two weeks. The gaseous phase of the inoculated flasks was then replaced with a gas mixture comprised of methane and air having a ratio of 1:1 on a v/v basis.
# The cells were harvested by centrifugation at 10,000×g. at 4° C. for 30 minutes. The cell pellet was washed twice with a 0.15 M phosphate buffer at a pH of 7.0 (containing 0.002 M MgCl2). The washed cells were then suspended in a 0.15 M phosphate buffer at pH 7.0.
# A 0.5 ml sample of each washed cell suspension (2 mg cells) was put into 10 ml vials at 4° C. which were sealed with a rubber cap. The gaseous phase of the vials was removed with vacuum and then was replaced with a gas mixture of the oxidative substrate (e.g., methane) and oxygen at a 1:1 v/v ratio. The vials were then incubated at 30° C. on a rotary shaker at 300 rpm. Samples of product (3 μl) were withdrawn periodically with a microsyringe and the products were analyzed by gas chromatography (ionization flame detector column).
# The newly discovered and isolated microorganism strains of the present invention were each grown aerobically in the presence of methane in the manner described above. […]
# [2] = system: P(40) particulate fraction of Methylosinus sp. (CRL-15, NRRL B-11,202); assay: Oxidation of n-alkenes and n-alkanes by P(40) particulate fraction; format: biochemical; conditions: for Rate of Product Formation: substrate oxidized to its epoxide or alcohol, 30° C.
# [3] = Propylene- and methane-oxidizing activities in cell fractions P(40), P(80), S(80) of methylotrophs; format: biochemical; conditions: in place of NADH
# Procedure: The oxidation of methane and propylene by particulate [(P)40 and(P)80] fractions and soluble [S(80)] fraction was measured at 30° C. by estimating the production of methanol and propylene oxide, respectively.
# Reaction mixtures were contained in 10 ml vials at 4° C. Vials were sealed with rubber caps. The gaseous phase in the vials was removed using vacuum and then was replaced with a gas mixture of methane or propylene and oxygen at a 1:1, v/v ratio. Oxidation of other gaseous n-alkanes and n-alkenes was examined as described above. For liquid substrates, 10 μl of substrate was used directly. Vials were then incubated at 30° C. on a rotary shaker at 200 RPM.
# The column temperature was maintained isothermally at 120° C. The carrier gas flow rate was 30 ml/min. of helium.
# [4] = system: cell-free particulate fractions derived from the methylotrophic microorganisms; assay: Conversion of C3-C6 n-alkanes to sec. alcohols by cell-free particulate fractions: inhibitors and electron donors; format: biochemical
# Description: The conditions for preparing the cell suspensions or the cell-free particulate fractions from methane-grown methylotroph microorganisms is the same as described above. […] Tables XXV and XXVI show the conversion of C3 -C6 n-alkanes to the corresponding secondary alcohols using cell suspensions and cell-free particulate fractions, respectively, of methane-grown methylotroph microorganisms.
# [5] = system: P(40) particulate fraction of Methylosinus sp. (CRL-15, NRRL B-11,202); assay: Stoichiometry of propylene epoxidation and methane hydroxylation by P(40) fraction; format: biochemical; conditions: 5.0 μmoles substrate
# Procedure: The particulate P(40) fraction of Methylosinus sp. (CRL-15, NRRL B-11,202) was used to determine the stoichiometry of hydroxylation and epoxidation reactions. The stoichiometry of methane or propylene-dependant NADH oxidation, oxygen consumption and product formation was approximately 1:1:1 Table XIV. This is consistent with methane or propylene oxygenation being catalyzed by a mono-oxygenase.
# ^a Under identical condition of reaction, the estimation of NADH
# oxidized was carried out spectrophotometrically, the estimation of oxygen
# consumed was measured polarographically, and estimation of product formed
# was carried out by gas chromatography.
# [6] = system: Methylosinus trichosporium OB3b (NRRL B-11,196); assay: Stoichiometry of the epoxidation of propylene by a cell-suspension; format: cell-based; conditions: 3 min., 3.1 mg. protein, 3.6 μmoles propylene
# Procedure: As a comparison the stoichiometry of the epoxidation of propylene by a cell-suspension of Methylosinus trichosporium OB3b (NRRL B-11,196) was determined as follows. The reaction mixture (3.0 ml.) contained 0.05 M sodium phosphate buffer, pH 7.0 and 3.6 μmoles of propylene. The reaction was initiated by the injection of 0.1 ml. of cell-suspension (3.1 mg. protein). A correction was made for the endogenous consumption of oxygen. The amount of oxygen consumed during the reaction (3 min.) was determined polarographically with a Clark oxygen electrode. The propylene consumed and the propylene oxide formed was estimated by gas chromatography. The propylene consumed was 0.29 μmoles, the oxygen consumed was 0.30 μmoles and the propylene oxide formed was 0.28 μmoles.
compound,measurement,setting,value
C=CCCC [1-Pentene],epoxide product from the substrate,[1],did not produce any detectable epoxide product
same,Rate of Product Formation,[2],0 μ moles/hr/mg of protein
"NC(=O)C1=CN([C@@H]2O[C@H](COP(=O)(O)OP(=O)(O)OC[C@H]3O[C@@H](n4cnc5c(N)ncnc54)[C@H](OP(=O)(O)O)[C@@H]3O)[C@@H](O)[C@H]2O)C=CC1 [NADPH, reduced nicotinamide adenine dinucleotide phosphate]",electron carrier for epoxidation of propylene and hydroxylation of methane,[3],could also be utilized
same,electron donor in place of NADH for hydroxylation of n-alkanes,[4],could also be utilized
C=CC [Propylene],Propylene Oxide Produced,"[2]; substrate competition, gas phase as labelled",4.3 μmoles/hr/mg. protein
same,Rate of Product Formation,[2],4.1 μ moles/hr/mg of protein
same,NADH Oxidized,[5],5.0 µmol
same,O2 Consumed,[5],4.8 µmol
same,Product formed,[5],4.5 µmol
same,oxygen consumed,[6],0.30 µmol
same,propylene consumed,[6],0.29 µmol
same,propylene oxide formed,[6],0.28 µmol
same,inhibition of the conversion of the n-alkanes to the sec. alcohols,[4],inhibit
C=CCCCC [hexene-1],epoxide product from the substrate,[1],did not produce any detectable epoxide product
